Data reported in ChEMBL document CHEMBL3045086, “Two-dimensional quantitative structureactivity relationship study on polyphenols as inhibitors of -glucosidase” (Med Chem Res, 2012).

Biological target: Alpha-glucosidase MAL62 (Saccharomyces cerevisiae) (UniProt P07265)
Assay: Inhibition of baker's yeast alpha-glucosidase using p-nitrophenyl-alpha-D-glucopyranoside as substrate by spectrophotometry

Sequence of Alpha-glucosidase MAL62 (Saccharomyces cerevisiae) (P07265 whole entry): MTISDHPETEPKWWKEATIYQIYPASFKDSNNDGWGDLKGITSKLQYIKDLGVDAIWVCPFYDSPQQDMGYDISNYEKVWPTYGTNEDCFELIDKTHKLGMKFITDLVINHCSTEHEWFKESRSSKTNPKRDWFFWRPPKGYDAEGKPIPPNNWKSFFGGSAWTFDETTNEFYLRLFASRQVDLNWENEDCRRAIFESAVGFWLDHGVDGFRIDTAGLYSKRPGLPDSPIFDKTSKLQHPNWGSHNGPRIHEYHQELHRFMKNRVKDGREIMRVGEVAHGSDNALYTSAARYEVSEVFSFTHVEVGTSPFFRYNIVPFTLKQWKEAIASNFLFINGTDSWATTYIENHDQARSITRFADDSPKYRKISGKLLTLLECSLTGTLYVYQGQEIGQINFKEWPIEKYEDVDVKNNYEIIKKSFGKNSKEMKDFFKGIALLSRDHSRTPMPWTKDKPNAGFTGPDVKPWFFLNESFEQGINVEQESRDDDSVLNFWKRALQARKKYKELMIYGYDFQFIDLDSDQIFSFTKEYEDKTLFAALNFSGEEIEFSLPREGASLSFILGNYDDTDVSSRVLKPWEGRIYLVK

Structure (SMILES) | logIC50
O=c1c(-c2ccc(O)cc2)coc2cc(O)cc(O)c12 | 0.845
C=CC(C)(C)c1c(O)cc(O)c2c(=O)c3oc4c5c(c(OCC=C(C)C)cc4c3oc12)OC(C)(C)C=C5 | 1.44
C=C(C)C(CC=C(C)C)Cc1c(O)cc(OC)c2c1OC(c1ccc(OC)cc1O)CC2=O (centres undefined) | 2.19
CC(C)=CCc1cc(C(=O)/C=C/c2ccc(O)c(O)c2)c(O)cc1O | 0.724
O=c1c(O)c(-c2ccc(O)c(O)c2)oc2cc(O)ccc12 | 1.11
Oc1cc(O)c2c(c1)OC(c1ccc(O)c(O)c1)C(O)C2 (centres undefined) | 2.11
C=CC(C)(C)c1c(O)cc(O)c2c(=O)c(O)c(-c3cc(O)c(O)c(CC=C(C)C)c3)oc12 | 0.556
O=C(O)/C=C/c1ccc(Cl)cc1 | 2.59
COc1cccc(/C=C/C(=O)O)c1 | 2.76
COC(=O)c1cc(O)c(O)c(O)c1 | 1.06
C=C(C)C(CCC(C)(C)O)Cc1c(O)cc(OC)c2c1OC(c1ccc(O)cc1O)CC2=O (centres undefined) | 2.25
OC[C@H]1OC(OC2=C(c3cc(O)c(O)c(O)c3)Oc3cc(O)cc(O)c3C2)[C@@H](O)[C@@H](O)[C@@H]1O (some centres undefined) | 1.48
CC1(C)C=Cc2cc(C(=O)/C=C/c3ccc(O)c(O)c3)c(O)cc2O1 | 1.28
CC(C)=CCc1cc(-c2oc3cc(O)c(CC=C(C)C)c(O)c3c(=O)c2O)cc(O)c1O | 0.322
O=C(O)/C=C/c1ccc(Oc2ccccc2)cc1 | 2.64
CC1(C)C=Cc2cc(C(=O)/C=C/c3ccc(O)cc3)c(O)cc2O1 | 1.09
COc1cc(O)c(C(C)=C(C)C)c2c1C(=O)CC(c1ccc(O)cc1)O2 (centres undefined) | 2.55
O=c1cc(-c2ccc(O)c(O)c2)oc2cc(O)cc(O)c12 | 1.32
CC(C)=CCc1c(C2CCc3ccc(O)cc3O2)cc2c(c1O)OC(C)(C)C=C2 (centres undefined) | 1.42
CC(C)=CCc1cc(C2CCc3ccc(O)cc3O2)c(CC=C(C)C)c(O)c1O (centres undefined) | 1.08
O=c1c(O)c(-c2ccc(O)c(O)c2)oc2cc(O)cc(O)c12 | 0.845
C=CC(C)(C)c1c(O)cc(O)c2c(=O)c3oc4c(CC=C(C)C)c(O)c(OCC=C(C)C)cc4c3oc12 | 1.52

Structure (SMILES) | logIC50
CC(C)=CCc1cc(C2CCc3ccc(O)cc3O2)cc(O)c1O (centres undefined) | 1.88
C=C(C)C(CC=C(C)C)Cc1c(O)cc(OC)c2c1OC(c1ccc(O)cc1O)CC2=O (centres undefined) | 1.83
Oc1cc(O)c2c(c1)OC(c1cc(O)c(O)c(O)c1)C(O)C2 (centres undefined) | 1.88
C=CC(C)(C)c1cc2c(cc1O)OC(c1cc(O)c(O)c(CC=C(C)C)c1C/C=C\C)CC2 (centres undefined) | 1.02
C=C(C)C(CC=C(C)C)Cc1c(O)cc(O)c2c1OC(c1ccc(O)cc1O)CC2=O (centres undefined) | 1.57
COc1ccc([C@@H]2CC(=O)c3c(O)cc(O)cc3O2)cc1O | 2.18
COc1ccc(/C=C/C(=O)O)cc1 | 1.6
O=C(O)/C=C/c1cccc(O)c1 | 3.1
O=C(O)c1cc(O)c(O)c(O)c1 | 0.716
Oc1cc(O)c2cc(O)c(-c3ccc(O)c(O)c3)[o+]c2c1 | 0.602
O=C(O)/C=C/c1ccc(F)cc1 | 2.43
O=C(OC1Cc2c(O)cc(O)cc2OC1c1cc(O)c(O)c(O)c1)c1cc(O)c(O)c(O)c1 (centres undefined) | 0.301
O=C1C[C@@H](c2ccc(O)cc2)Oc2cc(O)cc(O)c21 | 1.88
O=c1c(O)c(-c2cc(O)c(O)c(O)c2)oc2cc(O)cc(O)c12 | 0.699
CC(C)=CCc1cc(C(=O)/C=C/c2ccc(O)cc2)c(O)cc1O | 1.04
O=c1c(O)c(-c2ccc(O)cc2)oc2cc(O)cc(O)c12 | 1.08
CCOC(=O)/C=C/c1ccc(OC)cc1 | 1.7
O=C(O)/C=C/c1ccc(O)cc1 | 2.3
C=C(C)C(CC=C(C)C)Cc1c(O)cc(O)c2c1OC(c1ccccc1O)CC2=O (centres undefined) | 1.65
O=c1c(-c2ccc(O)cc2)coc2cc(O)ccc12 | 1.15
O=c1c(O)c(-c2ccc(O)cc2O)oc2cc(O)cc(O)c12 | 1.6
OC[C@H]1OC(OC2=C(c3ccc(O)c(O)c3)Oc3cc(O)cc(O)c3C2)[C@@H](O)[C@@H](O)[C@@H]1O (some centres undefined) | 1.3
